{
  "source": "paper PMC11002876",
  "about": "“KcsA-Kv1.x chimeras with complete ligand-binding sites provide improved predictivity for screening selective Kv1.x blockers” (The Journal of Biological Chemistry, 2024)",
  "target": "T1, KcsA-Kv1.3 T+F chimera (Streptomyces lividans, UniProt P0A334, A54D/A57S/G53D/G56T/I60S/L59F/L81M/Q58G/R52A/R64D/T61S/Y62I/Y82H)",
  "T1 construct": "made in house; host or cells: E. coli C41(DE3) (pET45b)",
  "T1 sequence (P0A334 1-160 R52A/G53D/A54D/G56T/A57S/Q58G/L59F/I60S/T61S/Y62I/R64D/L81M/Y82H)": "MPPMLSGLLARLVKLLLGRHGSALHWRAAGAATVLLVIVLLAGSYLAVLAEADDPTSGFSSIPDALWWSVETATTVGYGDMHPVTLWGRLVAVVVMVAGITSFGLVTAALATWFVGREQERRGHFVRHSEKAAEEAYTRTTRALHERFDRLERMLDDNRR",
  "assay": "Phage-binding competition assay, KcsA-Kv1.3 T+F",
  "parameters": "species or system human Kv1.3 turret and filter in Streptomyces lividans KcsA",
  "settings": "for rank order of affinities, competition, KcsA-Kv1.3 T+F: Fig. 6F; for Rank, T+F chimera (Kv1.3): rank by competition IC50 among Vm24, HgTx1, KTX1",
  "experimental": "Phage stock solutions were diluted to working concentration with phage resuspension buffer supplemented with 2 mM DDM. For protein immobilization, the following amounts were used in a final volume of 50 μl/well: wt KcsA, 0.1 μg; KcsA-Kv1.1 T-only, 0.005 μg; KcsA-Kv1.1 T+F, 0.02 μg; KcsA-Kv1.2 T-only, 0.01 μg; KcsA-Kv1.2 T+F, 0.1 μg; KcsA-Kv1.3 T-only, 0.01 μg; and KcsA-Kv1.3 T+F, 0.1 μg. Protein samples were diluted in 50 μl of storage buffer (20 mM Tris pH8.0, 300 mM KCl, 2 mM DDM) and were added to the designated wells of a Pierce Clear, 96-Well Nickel Coated Plate (15442, Thermo Fisher Scientific), then incubated for 1 h at room temperature on a horizontal shaker at 130 rpm. The plate was blocked for 1 h at room temperature with 180 μl/well TBS-BSA supplemented with 1 mM DDM. Following blocking, the wells were washed 4× with washing buffer (300 μl TBS-Tween, 0.1% v/v) using a Wellwash Versa microplate washer (Thermo Fisher Scientific); then 50 μl phage solution (in TBS-BSA-Tween, 0.1% v/v, 2 mM DDM) at determined phage concentration was added to the wells and incubated for 1 h at room temperature on a horizontal shaker. The plate was washed 4× with washing buffer, then 50 μl anti-M13 IgG HRP (MA5-36125, Invitrogen) diluted to 1:2500 in TBS-Tween (0.1% v/v) was added to the wells and incubated for 1 h at room temperature. The plate was washed again 4× with 300 μl/well washing buffer. Finally, 50 μl/well 1-Step Ultra TMB-ELISA solution (34028, Thermo Fisher Scientific) was added to the wells, and the developing signal was stopped with 50 μl 1M HCl after 5 to 10 min. The light absorbance signal was read at 450 nm with Byonoy absorbance 96 plate reader (Byonoy GmbH).\nFor protein immobilization, the following amounts were used in a final volume of 50 μl/well: KcsA-Kv1.1 T-only, 0.005 μg; KcsA-Kv1.1 T+F, 0.01 μg; KcsA-Kv1.2 T-only, 0.025 μg; KcsA-Kv1.2 T+F, 0.0125 μg; KcsA-Kv1.3 T-only, 0.01 μg; and KcsA-Kv1.3 T+F, 0.1 μg. Protein samples were diluted in storage buffer. Binding of given concentrations of relevant ligand-displaying phages quantified by light absorbance ([…]) were investigated in a similar manner as in phage ELISA-binding assay, while different concentrations of competing toxin test substances were applied simultaneously. The results were converted to percent inhibitions (percent displacement) of the indicator phage binding, and relative affinities of the tested toxins were assessed by plotting percent displacements against log concentrations and determining half maximal inhibitory concentrations (IC50) by sigmoidal curve fitting using “Sigmoidal dose-response (variable slope) with least squares method” algorithm in GraphPad Prism 8 using the following equation: Y=Bottom+Top−Bottom/1+10^(LogEC50−×)⋅HillSlope",
  "key": {"[1]": {"settings": "HgTx1-phage competition, T+F KcsA-Kv1.3, value given in figure, sigmoidal fit to means of three replicates, read-out: IC50 (Fig. 6F)"}},
  "note": "Where two headings read alike, the source gives them in different places. Where a SMILES comes first, the peptide text is derived from it.",
  "data": [
    {"smiles": "CC[C@H](C)[C@@H]1NC(=O)CNC(=O)[C@H](Cc2ccccc2)NC(=O)[C@H](CCC(N)=O)NC(=O)[C@H](C)NC(=O)[C@H](CCCCN)NC(=O)[C@@H]2CSSC[C@@H](C(=O)N[C@@H](Cc3ccc(O)cc3)C(=O)N3CCC[C@H]3C(=O)N[C@@H](Cc3c[nH]cn3)C(=O)O)NC(=O)[C@H](CCCCN)NC(=O)[C@@H]3CSSC[C@H](NC(=O)[C@H](CCC(N)=O)NC(=O)[C@H](CCCCN)NC(=O)[C@@H]4CCCN4C(=O)[C@H](CO)NC(=O)[C@H]([C@@H](C)O)NC(=O)[C@@H](NC(=O)[C@H](CCCCN)NC(=O)[C@@H](NC(=O)[C@H](CC(=O)O)NC(=O)[C@@H](NC(=O)[C@@H](NC(=O)[C@@H](N)[C@@H](C)O)C(C)C)[C@@H](C)CC)C(C)C)CSSC[C@H](NC(=O)[C@H](CCCCN)NC(=O)[C@H](C)NC(=O)CNC(=O)[C@H](C)NC(=O)[C@H](CCCNC(=N)N)NC1=O)C(=O)N[C@@H](CCSC)C(=O)N[C@@H](CC(N)=O)C(=O)NCC(=O)N[C@@H](CCCCN)C(=O)N3)C(=O)N[C@@H](CC(C)C)C(=O)N1CCC[C@H]1C(=O)N1CCC[C@H]1C(=O)N2", "note": "[HgTx1, Hongotoxin-1] (HELM PEPTIDE1{T.V.I.D.V.K.C.T.S.P.K.Q.C.L.P.P.C.K.A.Q.F.G.I.R.A.G.A.K.C.M.N.G.K.C.K.C.Y.P.H}$PEPTIDE1,PEPTIDE1,7:R3-29:R3|PEPTIDE1,PEPTIDE1,13:R3-34:R3|PEPTIDE1,PEPTIDE1,17:R3-36:R3$$$V2.0; N-terminus and C-terminus assumed)", "values": [
      {"measurement": "IC50", "setting": "[1]", "result": 0.107, "unit": "nM"},
      {"measurement": "rank order of affinities, competition, KcsA-Kv1.3 T+F", "setting": "HgTx1-phage competition", "result": "Vm24 > HgTx1 > KTX1"},
      {"measurement": "Rank, T+F chimera (Kv1.3)", "result": 2}
    ]},
    {"smiles": "CC[C@H](C)[C@H](NC(=O)[C@H](CCC(=O)O)NC(=O)[C@@H](NC(=O)CN)C(C)C)C(=O)N[C@@H](CC(N)=O)C(=O)N[C@H](C(=O)N[C@@H](CCCCN)C(=O)N[C@H]1CSSC[C@@H]2NC(=O)[C@H](CCCCN)NC(=O)CNC(=O)[C@H](Cc3ccccc3)NC(=O)[C@H](CCCNC(=N)N)NC(=O)[C@H](CCSC)NC(=O)CNC(=O)[C@H](C)NC(=O)[C@H](CC(=O)O)NC(=O)[C@H](CCCCN)NC(=O)[C@@H]3CSSC[C@@H](C(=O)N[C@H](C(=O)N4CCC[C@H]4C(=O)N[C@@H](CCCCN)C(=O)O)[C@@H](C)O)NC(=O)[C@H](Cc4c[nH]cn4)NC(=O)[C@H](CSSC[C@H](NC(=O)[C@H](CCC(N)=O)NC(=O)[C@@H]4CCCN4C(=O)[C@H](CO)NC(=O)CNC(=O)[C@H](CO)NC1=O)C(=O)N[C@@H](CC(C)C)C(=O)N[C@@H](CCCCN)C(=O)N1CCC[C@H]1C(=O)N3)NC(=O)[C@H](CCCCN)NC(=O)[C@H](CCCNC(=N)N)NC(=O)[C@H](CC(N)=O)NC(=O)[C@H](CCSC)NC2=O)C(C)C", "note": "[KTX1, Kaliotoxin-1]", "values": [
      {"measurement": "rank order of affinities, competition, KcsA-Kv1.3 T+F", "setting": "HgTx1-phage competition", "result": "Vm24 > HgTx1 > KTX1"},
      {"measurement": "IC50", "setting": "displacement of HgTx1-phage, KcsA-Kv1.3 T+F 0.1 μg/well on nickel-coated plate, phage ELISA absorbance, mean ± SD (n = 3), read-out: IC50, T+F chimera (Kv1.3)", "result": 98.2, "unit": "nM"},
      {"measurement": "Rank, T+F chimera (Kv1.3)", "result": 3}
    ]},
    {"smiles": "CC[C@H](C)[C@H](NC(=O)[C@H](C)NC(=O)[C@H](C)NC(=O)[C@H](C)N)C(=O)N[C@@H](CO)C(=O)N[C@H]1CSSC[C@@H]2NC(=O)[C@H](CCCCN)NC(=O)CNC(=O)[C@H](CC(N)=O)NC(=O)[C@H](CCCCN)NC(=O)[C@@H]3CSSC[C@@H](C(N)=O)NC(=O)[C@H](Cc4ccc(O)cc4)NC(=O)[C@H](Cc4ccc(O)cc4)NC(=O)[C@@H]4CSSC[C@H](NC(=O)[C@H](CCCCN)NC(=O)[C@@H]5CCCN5C(=O)[C@@H]5CCCN5C(=O)[C@H](CSSC[C@H](NC(=O)[C@H](CCCCN)NC(=O)[C@H](CCCNC(=N)N)NC(=O)[C@H](CC(N)=O)NC(=O)[C@H](CCSC)NC2=O)C(=O)N[C@@H](CCCCN)C(=O)N4)NC(=O)[C@H](CCC(=O)O)NC(=O)[C@@H]2CCCN2C(=O)[C@H](CO)NC(=O)CNC(=O)[C@H](C(C)C)NC1=O)C(=O)N[C@@H](CCCNC(=N)N)C(=O)N[C@@H](C)C(=O)N[C@@H](CCC(N)=O)C(=O)NCC(=O)N3", "note": "[Vm24, Vm24 toxin]", "values": [
      {"measurement": "IC50", "setting": "[1]", "result": 0.0359, "unit": "nM"},
      {"measurement": "rank order of affinities, competition, KcsA-Kv1.3 T+F", "setting": "HgTx1-phage competition", "result": "Vm24 > HgTx1 > KTX1"},
      {"measurement": "Rank, T+F chimera (Kv1.3)", "result": 1}
    ]}
  ]
}
